# Reference: patent publication US9980943B2, “Methods of treating muscular dystrophy” (BOARD OF REGENTS OF THE NEVADA SYSTEM OF HIGHER EDUCATION, …, priority 2013, dated 2018)
# What was measured:
# Assay type in all cases: cell-based, mouse
# [1] = system: α7 integrin (LacZ reporter in α7βgal+/− myoblasts); assay: Myoblast α7+/LacZ integrin FDG assay (Burkin assay in myoblasts, 96-well); conditions: 96-well; for Burkin Assay in Myoblasts, signal relative to DMSO: α7+/LacZ myoblasts; for Burkin Assay in Myoblasts, value relative to DMSO: SU9516 analogs, N=3-6
# [2] = system: β-galactosidase in CMV-LacZ C2C12 myoblasts; assay: CMV-LacZ secondary screen in C2C12 myoblasts (β-Gal stabilizing assay); conditions: for CMV-LACZ in Myoblasts (β-galactosidase activity relative to DMSO): CMV-LacZ C2C12 myoblasts; for CMV-LACZ in Myoblasts, value relative to DMSO: SU9516 analogs, C2C12 CMV-LacZ, N=2
# Outline: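 Dose-response runs at 0.5–40 μM (0.5, 1, 5, 10, 20, 40 μM; N=2 per point) used a clonal C2C12 line carrying CMV-LacZ. Cells were assayed as myoblasts or as differentiated myotubes, and β-galactosidase levels were read with the FDG fluorogenic substrate.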
# [3] = system: α7 integrin (LacZ reporter in α7+/LacZ myotubes); assay: Myotube α7 integrin FDG assay (Burkin assay in myotubes, 96-well); conditions: for Burkin Assay in Myotubes, value relative to DMSO: SU9516 analogs, 96-well, N=3-6
# [4] = system: β-galactosidase in CMV-LacZ C2C12 myotubes; assay: CMV-LacZ secondary screen in C2C12 myotubes (β-Gal stabilizing assay); conditions: for CMV-LACZ in Myotubes, signal relative to DMSO: C2C12 CMV-LacZ myotubes, fold relative to DMSO; for CMV-LACZ in Myotubes, value relative to DMSO: SU9516 analogs, C2C12 CMV-LacZ, N=2
# Outline: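 Stable CMV-LacZ C2C12 clone; six-point curve 0.5–40 μM; duplicates.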
smiles,measurement,setting,value
NC(=O)c1sc2nc3c(cc2c1N)CCC3 [MLS000707378-01],"Burkin Assay in Myoblasts, signal relative to DMSO",[1]; 0.5 uM,1.003
same,"Burkin Assay in Myoblasts, signal relative to DMSO",[1]; 1 uM,1.046
same,"Burkin Assay in Myoblasts, signal relative to DMSO",[1]; 5 uM,1.024
same,"Burkin Assay in Myoblasts, signal relative to DMSO",[1]; 10 uM,1.076
same,"Burkin Assay in Myoblasts, signal relative to DMSO",[1]; 20 uM,1.317
same,"Burkin Assay in Myoblasts, signal relative to DMSO",[1]; 40 uM,1.493
same,CMV-LACZ in Myoblasts (β-galactosidase activity relative to DMSO),[2]; 0.5 uM,1.0175
same,CMV-LACZ in Myoblasts (β-galactosidase activity relative to DMSO),[2]; 1 uM,1.0883
same,CMV-LACZ in Myoblasts (β-galactosidase activity relative to DMSO),[2]; 5 uM,0.8309
same,CMV-LACZ in Myoblasts (β-galactosidase activity relative to DMSO),[2]; 10 uM,0.8072
same,CMV-LACZ in Myoblasts (β-galactosidase activity relative to DMSO),[2]; 20 uM,0.8667
same,CMV-LACZ in Myoblasts (β-galactosidase activity relative to DMSO),[2]; 40 uM,0.6548
same,"Burkin Assay in Myotubes, α7 integrin LacZ reporter signal relative to DMSO",[3]; 0.5 uM,0.8716
same,"Burkin Assay in Myotubes, α7 integrin LacZ reporter signal relative to DMSO",[3]; 1 uM,0.8512
same,"Burkin Assay in Myotubes, α7 integrin LacZ reporter signal relative to DMSO",[3]; 5 uM,0.8899
same,"Burkin Assay in Myotubes, α7 integrin LacZ reporter signal relative to DMSO",[3]; 10 uM,1.241
same,"Burkin Assay in Myotubes, α7 integrin LacZ reporter signal relative to DMSO",[3]; 20 uM,1.046
same,"Burkin Assay in Myotubes, α7 integrin LacZ reporter signal relative to DMSO",[3]; 40 uM,1.051
same,"CMV-LACZ in Myotubes, signal relative to DMSO",[4]; 0.5 uM,1.0537
same,"CMV-LACZ in Myotubes, signal relative to DMSO",[4]; 1 uM,1.3937
same,"CMV-LACZ in Myotubes, signal relative to DMSO",[4]; 5 uM,0.9294
same,"CMV-LACZ in Myotubes, signal relative to DMSO",[4]; 10 uM,1.0300
same,"CMV-LACZ in Myotubes, signal relative to DMSO",[4]; 20 uM,0.9689
same,"CMV-LACZ in Myotubes, signal relative to DMSO",[4]; 40 uM,0.9167
COc1ccc2c(c1)C(=C(C#N)C#N)C(=O)N2CCc1ccccc1 [MLS000763074-01],"Burkin Assay in Myoblasts, value relative to DMSO",[1]; 0.5 uM,1.199
same,"Burkin Assay in Myoblasts, value relative to DMSO",[1]; 1 uM,1.067
same,"Burkin Assay in Myoblasts, value relative to DMSO",[1]; 5 uM,0.843
same,"Burkin Assay in Myoblasts, value relative to DMSO",[1]; 10 uM,1.134
same,"Burkin Assay in Myoblasts, value relative to DMSO",[1]; 20 uM,0.6586
same,"Burkin Assay in Myoblasts, value relative to DMSO",[1]; 40 uM,0.6085
same,"CMV-LACZ in Myoblasts, value relative to DMSO",[2]; 0.5 uM,0.8431
same,"CMV-LACZ in Myoblasts, value relative to DMSO",[2]; 1 uM,0.8256
same,"CMV-LACZ in Myoblasts, value relative to DMSO",[2]; 5 uM,1.1447
same,"CMV-LACZ in Myoblasts, value relative to DMSO",[2]; 10 uM,1.1966
same,"CMV-LACZ in Myoblasts, value relative to DMSO",[2]; 20 uM,1.2981
same,"CMV-LACZ in Myoblasts, value relative to DMSO",[2]; 40 uM,1.6644
same,"Burkin Assay in Myotubes, value relative to DMSO",[3]; 0.5 uM,1.0274
same,"Burkin Assay in Myotubes, value relative to DMSO",[3]; 1 uM,1.128
same,"Burkin Assay in Myotubes, value relative to DMSO",[3]; 5 uM,1.043
same,"Burkin Assay in Myotubes, value relative to DMSO",[3]; 10 uM,0.907
same,"Burkin Assay in Myotubes, value relative to DMSO",[3]; 20 uM,0.1921
same,"Burkin Assay in Myotubes, value relative to DMSO",[3]; 40 uM,0.2622
same,"CMV-LACZ in Myotubes, value relative to DMSO",[4]; 0.5 uM,1.0089
same,"CMV-LACZ in Myotubes, value relative to DMSO",[4]; 1 uM,0.8593
same,"CMV-LACZ in Myotubes, value relative to DMSO",[4]; 5 uM,1.0487
same,"CMV-LACZ in Myotubes, value relative to DMSO",[4]; 10 uM,0.9645
same,"CMV-LACZ in Myotubes, value relative to DMSO",[4]; 20 uM,1.7671
same,"CMV-LACZ in Myotubes, value relative to DMSO",[4]; 40 uM,1.9682
CC1CC(C)(C)NC(=S)N1CC(=O)N(C)Cc1ccccc1 (stereo not drawn) [MLS000586245-01],"Burkin Assay in Myoblasts, signal relative to DMSO",[1]; 0.5 uM,0.9903
same,"Burkin Assay in Myoblasts, signal relative to DMSO",[1]; 1 uM,1.049
same,"Burkin Assay in Myoblasts, signal relative to DMSO",[1]; 5 uM,1.116
same,"Burkin Assay in Myoblasts, signal relative to DMSO",[1]; 10 uM,1.244
same,"Burkin Assay in Myoblasts, signal relative to DMSO",[1]; 20 uM,1.033
same,"Burkin Assay in Myoblasts, signal relative to DMSO",[1]; 40 uM,1.021
same,CMV-LACZ in Myoblasts (β-galactosidase activity relative to DMSO),[2]; 0.5 uM,0.9034
same,CMV-LACZ in Myoblasts (β-galactosidase activity relative to DMSO),[2]; 1 uM,0.8985
same,CMV-LACZ in Myoblasts (β-galactosidase activity relative to DMSO),[2]; 5 uM,0.9258
same,CMV-LACZ in Myoblasts (β-galactosidase activity relative to DMSO),[2]; 10 uM,1.0505
same,CMV-LACZ in Myoblasts (β-galactosidase activity relative to DMSO),[2]; 20 uM,0.7726
same,CMV-LACZ in Myoblasts (β-galactosidase activity relative to DMSO),[2]; 40 uM,0.7674
same,"Burkin Assay in Myotubes, α7 integrin LacZ reporter signal relative to DMSO",[3]; 0.5 uM,1.003
same,"Burkin Assay in Myotubes, α7 integrin LacZ reporter signal relative to DMSO",[3]; 1 uM,0.9584
same,"Burkin Assay in Myotubes, α7 integrin LacZ reporter signal relative to DMSO",[3]; 5 uM,1.043
same,"Burkin Assay in Myotubes, α7 integrin LacZ reporter signal relative to DMSO",[3]; 10 uM,1.179
same,"Burkin Assay in Myotubes, α7 integrin LacZ reporter signal relative to DMSO",[3]; 20 uM,0.9426
same,"Burkin Assay in Myotubes, α7 integrin LacZ reporter signal relative to DMSO",[3]; 40 uM,1.026
same,"CMV-LACZ in Myotubes, signal relative to DMSO",[4]; 0.5 uM,1.0611
same,"CMV-LACZ in Myotubes, signal relative to DMSO",[4]; 1 uM,1.0800
same,"CMV-LACZ in Myotubes, signal relative to DMSO",[4]; 5 uM,0.9511
same,"CMV-LACZ in Myotubes, signal relative to DMSO",[4]; 10 uM,1.1338
same,"CMV-LACZ in Myotubes, signal relative to DMSO",[4]; 20 uM,1.2267
same,"CMV-LACZ in Myotubes, signal relative to DMSO",[4]; 40 uM,1.2656
